In publication PMC4236121 (PLoS ONE, 2014) one finds IC50 data, which are given here for seven compounds.

Like-named read-outs stand apart in the source and are kept apart here. Where no end group is shown, it is not given here.

This experiment concerns the target T1, DQ8 protein (HLA-DQ8: DQA1*03:01/DQB1*03:02) (Homo sapiens, UniProt P01909+P01920, A209T/A45G/C70Q/D89A/DUP78-78/E183D/E77G/F237L/G63E/H199R/I129T/K197E/L178F/L74F/L98V/Q57E/Q76R/S185I/S97I/T217I/T49S/V73L/Y58L).
T1 construct: made in house; host or cells: insect cells (Drosophila S2 is named only for the biotinylated tetramer preparation)
The experiment in a line: Peptide binding competition. The procedure: Recombinant DQ8 protein was produced as previously described. Briefly, soluble DQ8 was purified from insect cell culture supernatants by affinity chromatography and dialyzed against citric/phosphate storage buffer, pH 5.4. For the preparation of HLA class II tetramers, DQ8 protein was in vivo biotinylated in Drosophila S2 cells prior to harvest and dialyzed into citric/phosphate buffer. The biotinylated monomer was loaded with 0.2 mg/ml of peptide by incubating at 37°C for 72 h in the presence of 0.2 mg/ml n-Dodecyl-β-maltoside and 1 mM Pefabloc SC (Sigma–Aldrich, St. Louis, MO). Peptide loaded monomers were subsequently conjugated into tetramers using R-PE streptavidin (Biosource International, Camarillo, CA) at a molar ratio of 8∶1.
Peptide binding curves were simulated by non-linear regression with Prism software (Version 5, GraphPad Software Inc.) using a sigmoidal dose–response curve.

Setting [1] is: competition with 0.04 µM biotinylated GAD65_250–266 index peptide in wells coated with recombinant DQ8 protein, europium-streptavidin, time resolved fluorometer, sigmoidal dose-response fit, read-out: IC50 (binding to DQ8).

As for YVVKSFDRSTKVIDFHYPNE [GAD65 121–140], the IC50 (usually the concentration needed to halve the response being measured) under setting [1] is 1.6 µM.
“TAKAMEQMAGSSEQAAEAME [H1MP185–204, reference compound]”: the 50% inhibitory concentration (IC50) worked out at 1.4 µM.
Same read-out and setting: the figure for `CSCC[C@H](NC(=O)[C@H](CC(=O)O)NC(=O)[C@H](CC(C)C)NC(=O)CNC(=O)[C@@H](NC(=O)[C@H](CO)NC(=O)[C@H](CC(C)C)NC(=O)[C@H](CCC(N)=O)NC(=O)[C@H](CC(N)=O)NC(=O)[C@H](Cc1ccccc1)NC(=O)[C@H](Cc1ccc(O)cc1)NC(=O)[C@H](CCCNC(=N)N)NC(=O)[C@@H]1CCCN1)[C@@H](C)O)C(=O)N[C@H](C(=O)NCC(=O)O)C(C)C` [GAD65 176–190] is greater than 50 µM.
With FQQDKHYDLSYDTGD [GAD65 427–441], under setting [1], the IC50 was greater than 50 µM.
Same read-out and setting: the figure for AKGTTGFEAHVDKCL [GAD65 461–475] is greater than 50 µM.
As to TYEIAPVFVLLEYVT [GAD65 206–220], the IC50 was found to be 1.5 µM.
For YIPPSLRTLEDNEE [GAD65 508–521], under setting [1], the half-maximal inhibitory concentration (IC50) is greater than 50 µM.
